Results reported in patent publication US20230285310A1, “COMPOSITIONS FOR THE DELIVERY OF PAYLOAD MOLECULES TO AIRWAY EPITHELIUM” (ModernaTX, Inc., priority 2020, published 2023).
Where a name gives a salt, the structure may show the parent alone.

System: HeLa cells
Assay: Protein expression assay in HeLa cells (One-Glo luciferase, NPI-Luc mRNA)
Type: cell-based, human
Details: 5 h, no serum, 4 wells, sterol amine post-added to LNP core Compound 18, DSPC, Cholesterol plus DMG-PEG 2K (SA3, SA11, SA24, SA26, SA39, SA32), plus Compound 428 (SA4, SA6, SA10, SA16), or plus β-sitosterol and DMG-PEG 2K (SA23, SA29, SA30, SA31)
Experimental: To evaluate protein expression In Vitro, HeLa cells from ATCC.org (ATCC CCL-2) are used. The cells are cultured in complete Minimum Essential Medium (MEM) and are plated in 96 well Cell Carrier Ultra plate with PDL coated surface (PerkinElmer) prior to running an experiment.
LNPs encapsulating NPI-Luc mRNA were dosed with MEM media in the absence of serum. LNP transfected cell were incubated for 5 h post LNP transfection, the cells were imaged live using Opera Phoenix spinning disk confocal microscope (PerkinElmer). Cells were detected using DAPI (405 nm channel), and image analysis was performed in Harmony 4.9, to quantify the number of cells. After imaging the cells were processed with One-Glo Luciferase assay (Promega) to quantify protein expression. Results were reported in relative luminescence units (RLU) normalized to cells counts.
LNPs were prepared according to Example 2 using NPI-Luc as the mRNA construct. NPI-Luc is a dual read reporter made by adding a 5xV5 tag and a C-myc nuclear localization sequence at the N-terminus of Firefly Luciferase to enhance the signal to noise ratio. Protein expression can be detected using OneGLo assays with luminescence readout or by immunofluorescence with anti-V5 antibodies. Protein expression was evaluated according to the procedure outlined in Example 7. The LNPs are dosed in 4 wells and the average response was reported. For the HeLa assay the luminescence read (RLU) were normalized to cell counts.

In order of falling “Average protein expression per cell (RLU per cell)” value:
1. CC(C)CCC[C@@H](C)[C@H]1CC[C@H]2[C@@H]3CC=C4C[C@@H](OC(=O)NCCCNCCCCN)CC[C@]4(C)[C@H]3CC[C@]12C [SA30, (3S,8S,9S,10R,13R,14S,17R)-10,13-Dimethyl-17-((R)-6-methylheptan-2-yl)-2,3,4,7,8,9,10,11,12,13,14,15,16,17-tetradecahydro-1H-cyclopenta[a]phenanthren-3-yl (3-((4-aminobutyl)amino)propyl)carbamate dihydrochloride]  648.3 RLU per cell
2. CC(C)CCC[C@@H](C)[C@H]1CC[C@H]2[C@@H]3CC=C4C[C@@H](OC(=O)N(CCCN)CCCCN)CC[C@]4(C)[C@H]3CC[C@]12C [SA29, (3S,8S,9S,10R,13R,14S,17R)-10,13-Dimethyl-17-((R)-6-methylheptan-2-yl)-2,3,4,7,8,9,10,11,12,13,14,15,16,17-tetradecahydro-1H-cyclopenta[a]phenanthren-3-yl (4-aminobutyl)(3-aminopropyl)carbamate dihydrochloride]  550.3 RLU per cell
3. CC(C)CCC[C@@H](C)[C@H]1CC[C@H]2[C@@H]3CC=C4C[C@@H](OC(=O)CCC(=O)N(CCCN(C)C)CCCN(C)C)CC[C@]4(C)[C@H]3CC[C@]12C [SA24, (3S,8S,9S,10R,13R,14S,17R)-10,13-Dimethyl-17-((R)-6-methylheptan-2-yl)-2,3,4,7,8,9,10,11,12,13,14,15,16,17-tetradecahydro-1H-cyclopenta[a]phenanthren-3-yl 4-(bis(3-(dimethylamino)propyl)amino)-4-oxobutanoate dihydrochloride]  457.2 RLU per cell
4. CC[C@H](CC[C@@H](C)[C@H]1CC[C@H]2[C@@H]3CC=C4C[C@@H](OC(=O)NCCN(C)C)CC[C@]4(C)[C@H]3CC[C@]12C)C(C)C [SA10, (3S,8S,9S,10R,13R,14S,17R)-17-((2R,5R)-5-Ethyl-6-methylheptan-2-yl)-10,13-dimethyl-2,3,4,7,8,9,10,11,12,13,14,15,16,17-tetradecahydro-1H-cyclopenta[a]phenanthren-3-yl (2-(dimethylamino)ethyl)carbamate]  236.6 RLU per cell
5. CC(C)CCC[C@@H](C)[C@H]1CC[C@H]2[C@@H]3CC=C4C[C@@H](OC(=O)NCCN(C)CCO)CC[C@]4(C)[C@H]3CC[C@]12C [SA6, (3S,8S,9S,10R,13R,14S,17R)-10,13-dimethyl-17-((R)-6-methylheptan-2-yl)-2,3,4,7,8,9,10,11,12,13,14,15,16,17-tetradecahydro-1H-cyclopenta[a]phenanthren-3-yl (2-((2-hydroxyethyl)(methyl)amino)ethyl)carbamate]  196.2 RLU per cell
6. CC(C)CCC[C@@H](C)[C@H]1CC[C@H]2[C@@H]3CC=C4C[C@@H](OC(=O)NCCNc5c(NCCCN(C)C)c(=O)c5=O)CC[C@]4(C)[C@H]3CC[C@]12C [SA26, (3S,8S,9S,10R,13R,14S,17R)-10,13-dimethyl-17-((R)-6-methylheptan-2-yl)-2,3,4,7,8,9,10,11,12,13,14,15,16,17-tetradecahydro-1H-cyclopenta[a]phenanthren-3-yl (2-((2-((3-(dimethylamino)propyl)amino)-3,4-dioxocyclobut-1-en-1-yl)amino)ethyl)carbamate, hydrochloride salt]  84.3 RLU per cell
7. CC(C)CCC[C@@H](C)[C@H]1CC[C@H]2[C@@H]3CC=C4C[C@@H](OC(=O)CCc5cnc[nH]5)CC[C@]4(C)[C@H]3CC[C@]12C [SA11, (3S,8S,9S,10R,13R,14S,17R)-10,13-dimethyl-17-((R)-6-methylheptan-2-yl)-2,3,4,7,8,9,10,11,12,13,14,15,16,17-tetradecahydro-1H-cyclopenta[a]phenanthren-3-yl 3-(1H-imidazol-5-yl)propanoate, hydrochloride salt]  5.3 RLU per cell
